Active and inactive are the calls of the source.
Legend:
[1] = biological target: DNA dC->dU-editing enzyme APOBEC-3A (Homo sapiens, UniProt P31941); test: A3A deaminase inhibition for selectivity – biochemical, dose response (AID 504722); assay type: functional
[2] = biological target: DNA dC->dU-editing enzyme APOBEC-3G (Homo sapiens, UniProt Q9HC16); test: Dose Response confirmation of small molecule APOBEC3G DNA Deaminase Inhibitors via a fluorescence-based single-stranded DNA deaminase assay. [Related pubchem assays (depositor defined):AID493012, AID493028]; assay type: functional
[3] = biological target: G-protein coupled receptor 55 (Homo sapiens, UniProt Q9Y2T6); test: selective activators of receptor GPR55 – imaging, U2OS cells, beta-arrestin-GFP redistribution, primary screen (AID 1961); assay type: functional
Streptokinase A = biological target: T1, Streptokinase A (Streptococcus pyogenes serotype M1, UniProt P10520); test: viability-normalized secreted streptokinase activity reduction – plasminogen activation absorbance, OD405, dose response (AID 1914); assay type: functional, Streptococcus pyogenes M1 GAS;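 further: secreted streptokinase activity via plasminogen activation per viability signal from cell pellet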
T1 sequence (P10520 whole entry): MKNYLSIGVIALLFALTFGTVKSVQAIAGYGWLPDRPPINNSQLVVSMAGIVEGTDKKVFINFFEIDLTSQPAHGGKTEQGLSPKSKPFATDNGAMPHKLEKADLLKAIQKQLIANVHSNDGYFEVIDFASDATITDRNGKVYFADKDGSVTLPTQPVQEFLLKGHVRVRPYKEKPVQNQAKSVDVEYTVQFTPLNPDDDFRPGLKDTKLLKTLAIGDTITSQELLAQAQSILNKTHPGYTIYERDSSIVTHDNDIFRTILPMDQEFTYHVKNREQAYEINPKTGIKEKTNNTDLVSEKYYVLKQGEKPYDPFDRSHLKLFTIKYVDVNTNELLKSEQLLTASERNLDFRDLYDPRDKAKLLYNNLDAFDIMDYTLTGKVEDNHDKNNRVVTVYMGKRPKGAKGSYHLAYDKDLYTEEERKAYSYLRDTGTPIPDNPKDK

Beta-galactosidase = Beta-galactosidase (Escherichia coli, UniProt Q8VNN2); test: detection-enzyme interference by beta-gal modulators – biochemical, E. coli enzyme, set 3, artefact control for CCR6 antagonist project, dose response (AID 504712); assay type: functional
Streptococcus = test: GAS UMAA2166 growth inhibition – luminescence, BacTiterGlo, counter-screen for streptokinase expression inhibitor project, dose response (AID 1915); assay type: functional, organism-based;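 further: potency for reduction of bacterial viability or growth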
[4] = system: Streptococcus sp. 'group A'; test: Streptococcus pyogenes SK(-)GAS viability under kanamycin – luminescence, BacTiterGlo, confirmation, counter-screen for streptokinase expression inhibitor project, dose response (AID 1900); assay type: functional, organism-based
BJ [5] = test: cells; assay type: functional, cell-based; conditions: Homo sapiens
[6] = biological target: T2, Microphthalmia-associated transcription factor (Homo sapiens, UniProt O75030); test: reducers of TRPM1 reporter luminescence, concentration series – cell-based, SK-MEL-5, cherry-picked, set 3, MITF inhibitor project, dose response (AID 493073); assay type: functional;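 further: SK-MEL-5 melanoma cells with luciferase driven by the MITF target TRPM1 promoter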
T2 sequence (O75030 whole entry): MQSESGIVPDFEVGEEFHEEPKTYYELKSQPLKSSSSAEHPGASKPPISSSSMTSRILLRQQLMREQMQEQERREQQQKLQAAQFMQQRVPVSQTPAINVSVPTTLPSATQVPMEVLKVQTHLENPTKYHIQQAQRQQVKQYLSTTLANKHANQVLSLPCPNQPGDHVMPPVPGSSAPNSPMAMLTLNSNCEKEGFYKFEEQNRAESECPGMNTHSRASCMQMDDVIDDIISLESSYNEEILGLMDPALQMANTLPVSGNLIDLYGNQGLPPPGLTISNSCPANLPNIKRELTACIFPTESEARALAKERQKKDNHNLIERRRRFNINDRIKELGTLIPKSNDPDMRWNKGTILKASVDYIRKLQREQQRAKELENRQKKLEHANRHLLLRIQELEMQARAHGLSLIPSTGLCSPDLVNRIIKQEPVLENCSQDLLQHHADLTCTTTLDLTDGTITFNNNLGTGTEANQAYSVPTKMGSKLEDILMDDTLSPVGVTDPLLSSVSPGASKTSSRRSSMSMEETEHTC

Protein RecA = biological target: T3, Protein RecA (Mycobacterium tuberculosis, UniProt P9WHJ3); test: Fluorescence Cell-Free Homogeneous Dose Retest to Identify Inhibitors of RecA-Intein Splicing Activity. [Related pubchem assays (depositor defined):AID2097, AID2223, AID489010, AID492950]; assay type: functional
T3 sequence (P9WHJ3 whole entry): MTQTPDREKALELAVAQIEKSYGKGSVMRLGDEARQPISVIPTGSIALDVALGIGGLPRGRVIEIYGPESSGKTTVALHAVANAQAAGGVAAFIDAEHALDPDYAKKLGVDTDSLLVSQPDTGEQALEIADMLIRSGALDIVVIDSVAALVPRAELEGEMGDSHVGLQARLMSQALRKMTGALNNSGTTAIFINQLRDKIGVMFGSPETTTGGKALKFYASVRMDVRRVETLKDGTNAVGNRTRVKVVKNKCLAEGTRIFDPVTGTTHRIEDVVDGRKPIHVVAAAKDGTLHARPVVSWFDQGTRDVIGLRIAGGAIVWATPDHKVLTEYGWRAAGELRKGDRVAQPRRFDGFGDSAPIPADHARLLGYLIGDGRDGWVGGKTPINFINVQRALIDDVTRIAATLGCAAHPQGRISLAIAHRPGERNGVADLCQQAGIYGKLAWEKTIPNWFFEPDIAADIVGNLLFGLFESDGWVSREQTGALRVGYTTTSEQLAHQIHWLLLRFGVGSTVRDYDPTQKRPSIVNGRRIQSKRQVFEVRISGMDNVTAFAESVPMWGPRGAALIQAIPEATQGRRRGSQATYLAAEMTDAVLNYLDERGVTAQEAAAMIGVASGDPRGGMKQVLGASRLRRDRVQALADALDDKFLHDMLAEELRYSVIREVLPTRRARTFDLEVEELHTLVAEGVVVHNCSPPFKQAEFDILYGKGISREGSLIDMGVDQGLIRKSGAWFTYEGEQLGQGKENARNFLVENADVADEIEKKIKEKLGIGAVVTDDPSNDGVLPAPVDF

[7] = DRD fibroblast viability loss – cell-based, non-viral oncogenic, luminescence, dose response (AID 1934); assay type: functional; conditions: Homo sapiens
[8] = biological target: Nucleotide-binding oligomerization domain-containing protein 2 (Homo sapiens, UniProt Q9HC29); test: inhibition of NOD2-driven NF-kB reporter – cell-based, luminescence, uHTS, HEK293 (AID 1566); assay type: functional
BJ [9] = test: BJ-TERT fibroblast viability loss – cell-based, RAS-independent, luminescence, dose response (AID 1933); assay type: functional; conditions: Homo sapiens
BJ [10] = test: BJ-TERT-LT-ST fibroblast viability loss – cell-based, RAS-independent, luminescence, dose response (AID 1935); assay type: functional; conditions: Homo sapiens;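 further: BJ fibroblasts immortalized with TERT plus LT and ST oncogenes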
HEK293 [11] = test: cells; assay type: functional, cell-based; conditions: Homo sapiens
HEK293 [12] = test: cells; assay type: functional, cell-based; conditions: Homo sapiens; remark: listed apart in the source
HEK293 [13] = test: cells; assay type: functional, cell-based; conditions: Homo sapiens; remark: listed apart in the source
HEK293 [14] = test: NOD2 signaling inhibitors in MDP-stimulated cells, cell-based, uHTS, luminescence (AID 2001); assay type: functional; conditions: Homo sapiens
HEK293 [15] = test: inhibition of NOD1-driven NF-kB reporter – cell-based, luminescence, uHTS, primary screen (AID 1578); assay type: functional; conditions: Homo sapiens
[16] = biological target: T4, Replicative DNA helicase DnaB (Mycobacterium tuberculosis, UniProt P9WMR3); test: DnaB intein splicing inhibitors, dose response, biochemical, cell-free fluorescence (AID 449749); assay type: functional
T4 sequence (P9WMR3 whole entry): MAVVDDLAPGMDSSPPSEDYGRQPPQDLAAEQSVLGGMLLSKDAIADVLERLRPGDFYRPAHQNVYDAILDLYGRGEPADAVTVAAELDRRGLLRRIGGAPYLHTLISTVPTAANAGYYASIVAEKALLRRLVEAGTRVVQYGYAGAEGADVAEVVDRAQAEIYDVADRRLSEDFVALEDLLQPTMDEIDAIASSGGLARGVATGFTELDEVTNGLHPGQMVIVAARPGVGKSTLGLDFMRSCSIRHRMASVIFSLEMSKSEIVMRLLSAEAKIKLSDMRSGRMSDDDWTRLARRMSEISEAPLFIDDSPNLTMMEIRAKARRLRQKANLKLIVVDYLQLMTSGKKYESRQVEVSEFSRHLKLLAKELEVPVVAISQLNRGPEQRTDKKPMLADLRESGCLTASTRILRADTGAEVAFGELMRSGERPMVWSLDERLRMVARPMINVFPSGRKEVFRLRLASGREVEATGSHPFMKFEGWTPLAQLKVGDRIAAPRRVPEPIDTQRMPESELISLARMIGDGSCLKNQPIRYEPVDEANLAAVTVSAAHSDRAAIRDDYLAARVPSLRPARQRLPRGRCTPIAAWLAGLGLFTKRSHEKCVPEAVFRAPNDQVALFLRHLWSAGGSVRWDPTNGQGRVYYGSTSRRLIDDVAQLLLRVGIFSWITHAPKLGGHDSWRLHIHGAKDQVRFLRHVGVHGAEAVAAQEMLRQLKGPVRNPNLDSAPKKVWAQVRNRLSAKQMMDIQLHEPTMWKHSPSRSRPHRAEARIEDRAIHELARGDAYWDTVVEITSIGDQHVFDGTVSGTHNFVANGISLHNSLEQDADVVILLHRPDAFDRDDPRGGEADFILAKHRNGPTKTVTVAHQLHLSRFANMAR

[17] = biological target: Glyceraldehyde-3-phosphate dehydrogenase (Homo sapiens, UniProt P04406)
[18] = biological target: T5, Alkaline phosphatase, tissue-nonspecific isozyme (Homo sapiens, UniProt P05186); test: potency against alkaline phosphatase TNAP – biochemical, luminescent, dose response, SAR follow-up (AID 1056)
T5 sequence (P05186 whole entry): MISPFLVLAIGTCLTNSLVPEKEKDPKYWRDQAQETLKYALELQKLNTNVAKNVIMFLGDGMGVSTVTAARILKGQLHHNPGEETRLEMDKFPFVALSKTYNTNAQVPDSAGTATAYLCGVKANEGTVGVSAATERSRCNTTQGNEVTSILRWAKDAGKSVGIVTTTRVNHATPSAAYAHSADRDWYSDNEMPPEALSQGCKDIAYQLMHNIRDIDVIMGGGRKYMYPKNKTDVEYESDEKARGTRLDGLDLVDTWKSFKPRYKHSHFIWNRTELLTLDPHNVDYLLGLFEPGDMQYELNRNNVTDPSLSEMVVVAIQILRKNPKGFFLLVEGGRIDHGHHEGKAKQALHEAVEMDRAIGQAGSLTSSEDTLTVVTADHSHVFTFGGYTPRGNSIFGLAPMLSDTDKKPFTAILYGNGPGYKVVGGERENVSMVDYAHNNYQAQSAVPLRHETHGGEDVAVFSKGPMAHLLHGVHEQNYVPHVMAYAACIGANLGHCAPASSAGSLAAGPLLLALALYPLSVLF

[19] = biological target: Induced myeloid leukemia cell differentiation protein Mcl-1 (Homo sapiens, UniProt Q07820); assay type: functional
SUMO-activating enzyme [20] = biological target: T6, SUMO-activating enzyme (Homo sapiens, UniProt Q9UBT2); test: blockers of SAE1/SAE2–UBC9 SUMO transfer – biochemical, HTRF, uHTS, primary screen (AID 2006); assay type: protein-complex assay
Genome polyprotein = Genome polyprotein (dengue virus type 2, UniProt P29990); test: flavivirus cap methylation enzyme inhibition – biochemical, confirmation dose response, primary screen (AID 588689); assay type: functional
SUMO-activating enzyme [21] = biological target: T6, SUMO-activating enzyme; test: blockers of UBC9-mediated SUMO conjugation – biochemical, AlphaScreen, SUMOylation inhibitor project, confirmation (AID 2018); assay type: functional

Chain of G-protein coupled receptor 55 (Q9Y2T6 whole entry): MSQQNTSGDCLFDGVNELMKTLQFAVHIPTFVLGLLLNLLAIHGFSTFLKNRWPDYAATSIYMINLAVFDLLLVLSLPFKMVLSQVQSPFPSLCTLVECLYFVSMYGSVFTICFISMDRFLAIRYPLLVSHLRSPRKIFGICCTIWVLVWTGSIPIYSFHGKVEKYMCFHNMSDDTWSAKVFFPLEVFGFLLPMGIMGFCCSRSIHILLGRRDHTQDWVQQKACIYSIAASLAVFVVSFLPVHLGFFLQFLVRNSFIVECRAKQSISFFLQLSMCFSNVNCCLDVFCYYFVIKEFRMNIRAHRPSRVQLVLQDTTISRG
T6 sequence (Q9UBE0 whole entry): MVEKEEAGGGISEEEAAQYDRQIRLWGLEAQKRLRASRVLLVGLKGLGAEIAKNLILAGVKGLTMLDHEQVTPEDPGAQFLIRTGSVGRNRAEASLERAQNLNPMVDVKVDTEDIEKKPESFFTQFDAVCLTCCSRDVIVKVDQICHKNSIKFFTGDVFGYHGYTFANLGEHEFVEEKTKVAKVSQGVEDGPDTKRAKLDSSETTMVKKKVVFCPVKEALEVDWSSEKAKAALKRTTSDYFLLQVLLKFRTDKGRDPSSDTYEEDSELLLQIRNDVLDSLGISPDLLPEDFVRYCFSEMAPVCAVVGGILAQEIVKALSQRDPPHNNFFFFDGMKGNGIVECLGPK
T6 sequence (Q9UBT2 whole entry): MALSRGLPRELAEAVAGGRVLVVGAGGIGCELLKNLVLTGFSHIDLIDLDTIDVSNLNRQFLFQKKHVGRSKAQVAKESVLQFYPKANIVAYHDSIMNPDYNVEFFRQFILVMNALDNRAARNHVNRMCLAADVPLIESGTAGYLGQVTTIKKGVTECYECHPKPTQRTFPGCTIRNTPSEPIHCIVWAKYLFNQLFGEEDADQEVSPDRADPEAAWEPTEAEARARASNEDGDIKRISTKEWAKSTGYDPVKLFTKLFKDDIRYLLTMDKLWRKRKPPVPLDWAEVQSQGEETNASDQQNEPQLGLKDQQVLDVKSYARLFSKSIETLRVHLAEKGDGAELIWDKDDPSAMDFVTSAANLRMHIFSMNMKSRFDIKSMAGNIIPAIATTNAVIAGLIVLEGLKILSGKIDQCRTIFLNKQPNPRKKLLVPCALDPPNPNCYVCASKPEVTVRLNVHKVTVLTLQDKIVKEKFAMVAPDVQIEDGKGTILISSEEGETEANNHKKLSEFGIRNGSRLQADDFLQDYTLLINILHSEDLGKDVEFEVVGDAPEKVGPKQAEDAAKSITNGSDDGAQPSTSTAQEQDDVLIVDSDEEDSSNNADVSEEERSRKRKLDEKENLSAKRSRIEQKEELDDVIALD
Chain of Nucleotide-binding oligomerization domain-containing protein 2 (Q9HC29 whole entry, the tested form may be a part): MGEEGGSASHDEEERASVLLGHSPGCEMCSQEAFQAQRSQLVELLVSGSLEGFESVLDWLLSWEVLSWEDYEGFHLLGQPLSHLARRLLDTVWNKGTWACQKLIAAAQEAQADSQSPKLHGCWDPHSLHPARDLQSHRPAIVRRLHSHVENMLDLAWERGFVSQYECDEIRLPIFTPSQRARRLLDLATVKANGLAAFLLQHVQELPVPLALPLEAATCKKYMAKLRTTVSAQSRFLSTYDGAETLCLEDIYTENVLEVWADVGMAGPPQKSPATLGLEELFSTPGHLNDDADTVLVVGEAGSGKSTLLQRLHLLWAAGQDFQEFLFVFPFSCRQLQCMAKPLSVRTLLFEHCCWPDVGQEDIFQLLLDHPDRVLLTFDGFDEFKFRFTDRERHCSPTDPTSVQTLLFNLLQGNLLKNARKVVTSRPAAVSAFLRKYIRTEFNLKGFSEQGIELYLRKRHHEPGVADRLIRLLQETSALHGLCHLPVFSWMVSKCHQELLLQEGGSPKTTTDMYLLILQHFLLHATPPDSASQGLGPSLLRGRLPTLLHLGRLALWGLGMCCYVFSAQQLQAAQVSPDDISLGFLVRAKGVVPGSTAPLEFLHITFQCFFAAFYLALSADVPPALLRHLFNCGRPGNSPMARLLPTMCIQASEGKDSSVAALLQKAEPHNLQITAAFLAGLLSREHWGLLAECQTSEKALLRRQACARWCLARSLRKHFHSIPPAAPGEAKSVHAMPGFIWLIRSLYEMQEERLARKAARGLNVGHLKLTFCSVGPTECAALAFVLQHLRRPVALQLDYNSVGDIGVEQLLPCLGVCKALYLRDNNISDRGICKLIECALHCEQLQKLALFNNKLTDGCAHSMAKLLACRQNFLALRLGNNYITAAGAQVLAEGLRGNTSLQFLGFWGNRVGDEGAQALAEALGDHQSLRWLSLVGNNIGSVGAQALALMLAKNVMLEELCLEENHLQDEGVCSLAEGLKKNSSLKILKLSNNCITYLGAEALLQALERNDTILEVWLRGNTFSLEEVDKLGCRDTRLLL
Chain of Glyceraldehyde-3-phosphate dehydrogenase (P04406 whole entry): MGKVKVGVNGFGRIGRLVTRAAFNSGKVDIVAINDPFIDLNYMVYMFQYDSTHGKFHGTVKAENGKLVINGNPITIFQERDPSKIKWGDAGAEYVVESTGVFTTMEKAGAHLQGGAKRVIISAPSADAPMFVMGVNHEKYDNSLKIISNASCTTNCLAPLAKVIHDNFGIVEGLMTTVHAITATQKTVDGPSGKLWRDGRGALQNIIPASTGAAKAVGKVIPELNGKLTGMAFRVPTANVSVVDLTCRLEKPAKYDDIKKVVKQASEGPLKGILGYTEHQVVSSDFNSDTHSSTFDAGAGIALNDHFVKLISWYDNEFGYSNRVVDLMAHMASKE
Chain of Genome polyprotein (P29990 2492-3391 limits assumed): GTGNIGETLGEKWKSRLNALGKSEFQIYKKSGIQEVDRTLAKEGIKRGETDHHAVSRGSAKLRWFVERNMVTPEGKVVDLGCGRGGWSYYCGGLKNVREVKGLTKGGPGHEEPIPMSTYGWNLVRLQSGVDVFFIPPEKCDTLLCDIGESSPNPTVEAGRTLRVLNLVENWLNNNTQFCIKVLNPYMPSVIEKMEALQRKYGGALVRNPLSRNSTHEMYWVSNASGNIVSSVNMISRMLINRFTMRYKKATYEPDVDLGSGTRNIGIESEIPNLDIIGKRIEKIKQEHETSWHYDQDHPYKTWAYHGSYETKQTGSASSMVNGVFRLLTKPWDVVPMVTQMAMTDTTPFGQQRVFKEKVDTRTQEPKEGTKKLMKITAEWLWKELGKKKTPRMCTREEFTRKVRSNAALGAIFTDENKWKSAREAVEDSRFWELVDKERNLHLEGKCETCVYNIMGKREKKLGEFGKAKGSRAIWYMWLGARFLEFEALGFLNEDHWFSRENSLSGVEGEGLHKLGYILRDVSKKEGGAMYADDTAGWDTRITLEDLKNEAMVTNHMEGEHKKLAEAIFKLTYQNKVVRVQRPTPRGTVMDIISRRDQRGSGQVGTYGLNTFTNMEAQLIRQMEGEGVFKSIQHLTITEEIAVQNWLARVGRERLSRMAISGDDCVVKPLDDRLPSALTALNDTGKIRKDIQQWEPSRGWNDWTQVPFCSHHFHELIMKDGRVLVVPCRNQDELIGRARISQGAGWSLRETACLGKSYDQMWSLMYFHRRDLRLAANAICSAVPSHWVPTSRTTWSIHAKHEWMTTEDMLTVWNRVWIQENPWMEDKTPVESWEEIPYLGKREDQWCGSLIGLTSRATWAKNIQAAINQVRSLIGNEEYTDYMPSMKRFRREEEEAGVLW
Chain of Induced myeloid leukemia cell differentiation protein Mcl-1 (Q07820 whole entry): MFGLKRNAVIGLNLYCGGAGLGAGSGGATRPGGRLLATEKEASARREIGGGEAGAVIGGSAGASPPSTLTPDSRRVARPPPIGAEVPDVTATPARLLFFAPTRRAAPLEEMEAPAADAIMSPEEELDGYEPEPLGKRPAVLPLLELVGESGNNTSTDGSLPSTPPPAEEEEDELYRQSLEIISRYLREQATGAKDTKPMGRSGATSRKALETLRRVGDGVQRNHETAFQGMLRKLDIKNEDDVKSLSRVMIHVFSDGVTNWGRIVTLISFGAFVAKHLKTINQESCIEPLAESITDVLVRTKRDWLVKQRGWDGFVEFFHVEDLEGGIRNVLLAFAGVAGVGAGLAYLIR
Chain of DNA dC->dU-editing enzyme APOBEC-3G (Q9HC16 whole entry): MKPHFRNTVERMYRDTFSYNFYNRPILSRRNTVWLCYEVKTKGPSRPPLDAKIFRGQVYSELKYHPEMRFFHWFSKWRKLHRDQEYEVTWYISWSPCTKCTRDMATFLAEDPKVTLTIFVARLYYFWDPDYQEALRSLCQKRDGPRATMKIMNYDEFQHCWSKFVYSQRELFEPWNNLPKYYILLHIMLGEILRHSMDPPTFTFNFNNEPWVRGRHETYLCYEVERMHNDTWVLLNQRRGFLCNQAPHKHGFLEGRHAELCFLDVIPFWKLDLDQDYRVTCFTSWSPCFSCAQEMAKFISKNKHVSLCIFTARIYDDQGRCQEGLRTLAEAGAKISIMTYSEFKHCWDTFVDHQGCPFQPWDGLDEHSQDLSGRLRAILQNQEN
Chain of DNA dC->dU-editing enzyme APOBEC-3A (P31941 whole entry): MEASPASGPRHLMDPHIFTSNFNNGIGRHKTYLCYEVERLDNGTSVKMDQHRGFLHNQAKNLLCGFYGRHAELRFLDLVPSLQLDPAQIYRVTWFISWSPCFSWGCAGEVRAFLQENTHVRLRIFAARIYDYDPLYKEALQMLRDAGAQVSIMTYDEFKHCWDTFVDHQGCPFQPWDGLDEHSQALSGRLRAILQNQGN

SMILES: Sc1nc2cc(Br)c[nH]c-2n1
- IC50 [1]: > 100 µM (inactive)
- IC50 [2]: 2.94 µM (active)

SMILES: Cc1ccc(SC[C@H](Cc2ccccc2)N2CC[C@@H](NC(=O)OCc3ccccc3)CCC2=O)cc1
- EC50 [3]: 1.42 µM (active)

SMILES: COc1cccc(C(=O)NC(=S)N2CCN(c3ccc(C(F)(F)F)cc3[N+](=O)[O-])CC2)c1
- EC50 (Streptokinase A): > 150 µM (not active)
- IC50 (Beta-galactosidase): > 66.6 µM (inactive)
- EC50 (Streptococcus): > 150 µM (not active)
- EC50 [4]: > 150 µM (not active)

SMILES: O=C(CCl)Nc1cccc(S(=O)(=O)N2CCCCCC2)c1
- EC50 (BJ [5]): 22 µM (active)
- AC50 [6]: 11.8 µM (active)
- EC50 (Protein RecA): 22.6 µM (active)
- EC50 [7]: 9.38 µM (active)
- EC50 [8]: 19.6 µM (active)
- EC50 (BJ [9]): 4.64 µM (inconclusive)
- EC50 (BJ [10]): 10.7 µM (active)
- IC50 (HEK293 [11]): 4.83 µM (active)
- IC50 (HEK293 [12]): > 20 µM (inactive)
- IC50 (HEK293 [13]): > 20 µM (inactive)
- IC50 (HEK293 [14]): 8.19 µM (active)
- EC50 (HEK293 [15]): 10.1 µM (active)
- AC50 [16]: 23.5 µM (active)

SMILES: CC(C)CCn1c(Sc2nc3ccccc3o2)nc2c1c(=O)[nH]c(=O)n2C
- EC50 (Protein RecA): 4.76 µM (active)
- IC50 (HEK293 [11]): 7.89 µM (active)
- IC50 (HEK293 [13]): > 20 µM (inactive)
- IC50 (HEK293 [14]): 5.79 µM (active)
- EC50 (HEK293 [15]): > 20 µM (inactive)
- AC50 [16]: > 380 µM (inconclusive)

SMILES: COc1ccc(C(C)C)cc1S(=O)(=O)Nc1cccnc1
- IC50 [17]: > 100 µM (not active)
- IC50 [18]: > 100 µM (inactive)

SMILES: COCCN(Cc1ccccc1)C(=O)c1cc(-c2ccc(OC)c(OC)c2)nc2ccccc12
- EC50 [8]: > 20 µM (inactive)
- IC50 (HEK293 [11]): > 20 µM (inactive)
- IC50 (HEK293 [12]): 16.3 µM (active)
- IC50 (HEK293 [13]): > 20 µM (inactive)
- IC50 (HEK293 [14]): > 20 µM (inactive)
- EC50 (HEK293 [15]): > 20 µM (inactive)

SMILES: COc1cccc(Cn2cc(-c3cccc(C(F)(F)F)c3)nn2)c1
- EC50 [3]: 9.1 µM (active)

SMILES: Cc1[nH]n(-c2ncc(-c3ccccc3)s2)c(=O)c1C(c1ccc(Cl)cc1)C(C#N)C#N (centres undefined)
- IC50 [19]: 8.69 µM (active)
- IC50 (SUMO-activating enzyme [20]): 28.8 µM (active)
- IC50 (Genome polyprotein): 31.9 µM (active)
- IC50 (SUMO-activating enzyme [21]): 7.91 µM (active)
